Source: patent EP0680950B1, “PROPENONE DERIVATIVES” (KYOWA HAKKO KOGYO CO., LTD., priority 1993, dated 1995)

Test system: HeLa S3 cells
Test: HeLa S3 Cell Growth Inhibition Test
Assay type: cell-based
Conditions: Homo sapiens, 72 hours culture with compound, neutral red staining
Experimental: Each 0.1 ml of HeLa S3 cells which had been prepared to 3 x 10^4 cells/ml using a medium consisted of MEM medium, 10 % fetal bovine serum and 2 mM glutamine was distributed in each well of 96 well-microtiter plate. HeLa S3 was cultured at 37°C in a CO2 incubator for one night, each 0.05 ml of test compounds which had been appropriately diluted with the culture solution was added thereto and the mixture was cultured at 37°C for 72 hours in a CO2 incubator. Supernatant was removed, each 0.1 ml of the culture solution containing 0.02 % neutral red was added to the residue, the mixture was incubated at 37°C for one hour in a CO2 incubator and the cells were stained. Supernatant was removed and the residue was washed once with physiological saline. Then, the pigment was extracted with 0.001 N hydrochloric acid/30 % ethanol and the absorbance at 550 nm was measured by a microplatereader. A concentration of the test compound (IC50) at which the growth of cell is inhibited by 50 % was calculated by comparing the absorbance of non-treated cells and that of cells treated with a predetermined concentration of the test compound.

COc1cc(C(=O)/C=C/c2cn(C(=O)c3cccc(C)c3)c3ccccc23)cc(OC)c1OC [Compound 52, (E)-3-[1-(3-Methylbenzoyl)indol-3-yl]-1-(3,4,5-trimethoxyphenyl)-2-propen-1-one]
IC50: 58 nM

COc1cc(C(=O)/C=C/c2cn(C(C)=O)c3ccccc23)cc(OC)c1OC [Compound 6, (E)-3-(1-Acetylindol-3-yl)-1-(3,4,5-trimethoxyphenyl)-2-propen-1-one]
IC50: 17 nM

CCc1ccc2c(/C=C(\C)C(=O)c3cc(OC)c(OC)c(OC)c3)c[nH]c2c1 [Compound 66, (E)-3-(6-Ethylindol-3-yl)-2-methyl-1-(3,4,5-trimethoxyphenyl)-2-propen-1-one]
IC50: 2.5 nM

COc1cc(C(=O)/C=C/c2c[nH]c3ccccc23)cc(OC)c1OC [Compound 1, (E)-3-(Indol-3-yl)-1-(3,4,5-trimethoxyphenyl)-2-propen-1-one]
IC50: 10 nM

COc1cc(C(=O)/C=C/c2c[nH]c3ccc(C)cc23)cc(OC)c1OC [Compound 20, (E)-3-(5-Methylindol-3-yl)-1-(3,4,5-trimethoxyphenyl)-2-propen-1-one]
IC50: 110 nM

COc1cccc(C(=O)n2cc(/C=C/C(=O)c3cc(OC)c(OC)c(OC)c3)c3ccccc32)c1 [Compound 53, (E)-3-[1-(3-Methoxybenzoyl)indol-3-yl]-1-(3,4,5-trimethoxyphenyl)-2-propen-1-one]
IC50: 34 nM

COc1cc(C(=O)/C=C/c2cn(C)c3cc(NC(C)=O)ccc23)cc(OC)c1OC [Compound 38, (E)-3-(6-Acetamido-1-methylindol-3-yl)-1-(3,4,5-trimethoxyphenyl)-2-propen-1-one]
IC50: 55 nM

CCn1cc(/C=C/C(=O)c2cc(OC)c(OC)c(OC)c2)c2ccccc21 [Compound 3, (E)-3-(1-Ethylindol-3-yl)-1-(3,4,5-trimethoxyphenyl)-2-propen-1-one]
IC50: 58 nM

COc1cc(C(=O)/C(C)=C/c2c[nH]c3ccccc23)cc(OC)c1OC [Compound 48, (E)-3-(Indol-3-yl)-2-methyl-1-(3,4,5-trimethoxyphenyl)-2-propen-1-one]
IC50: 0.29 nM

CCC/C(=C\c1c[nH]c2ccccc12)C(=O)c1cc(OC)c(OC)c(OC)c1 [Compound 49, (E)-3-(Indol-3-yl)-2-propyl-1-(3,4,5-trimethoxyphenyl)-2-propen-1-one]
IC50: 6 nM

COc1cc(C(=O)/C=C/c2cn(C)c3ccccc23)cc(OC)c1OC [Compound 2, (E)-3-(1-Methylindol-3-yl)-1-(3,4,5-trimethoxyphenyl)-2-propen-1-one]
IC50: 20 nM

COc1cc(C(=O)/C(C)=C/c2c[nH]c3cc(C)ccc23)cc(OC)c1OC [Compound 63, (E)-2-Methyl-3-(6-methylindol-3-yl)-1-(3,4,5-trimethoxyphenyl)-2-propen-1-one]
IC50: 0.73 nM

CCCC/C(=C\c1c[nH]c2ccccc12)C(=O)c1cc(OC)c(OC)c(OC)c1 [Compound 65, (E)-2-Butyl-3-(indol-3-yl)-1-(3,4,5-trimethoxyphenyl)-2-propen-1-one]
IC50: 6.3 nM

COc1cc(C(=O)/C=C/c2cn(C(=O)c3cccnc3)c3ccccc23)cc(OC)c1OC [Compound 60, (E)-3-(1-Nicotinoylindol-3-yl)-1-(3,4,5-trimethoxyphenyl)-2-propen-1-one]
IC50: 7.7 nM

COc1cc(C(=O)/C=C/c2c[nH]c3c(OC)cccc23)cc(OC)c1OC [Compound 46, (E)-3-(7-Methoxyindol-3-yl)-1-(3,4,5-trimethoxyphenyl)-2-propen-1-one]
IC50: 200 nM

COc1cc(C(=O)/C=C/c2cn(C(=O)c3ccccc3)c3ccccc23)cc(OC)c1OC [Compound 8, (E)-3-(1-Benzoylindol-3-yl)-1-(3,4,5-trimethoxyphenyl)-2-propen-1-one]
IC50: 26 nM

COc1cc(C(=O)/C=C/c2c(Cl)n(C)c3ccccc23)cc(OC)c1OC [Compound 13, (E)-3-(2-Chloro-1-methylindol-3-yl)-1-(3,4,5-trimethoxyphenyl)-2-propen-1-one]
IC50: 78 nM

COc1cc(C(=O)/C=C/c2cn(C(=O)c3ccc(NC(C)=O)cc3)c3ccccc23)cc(OC)c1OC [Compound 56, (E)-3-[1-(4-Acetamidobenzoyl)indol-3-yl]-1-(3,4,5-trimethoxyphenyl)-2-propen-1-one]
IC50: 23 nM

COc1cc(C(=O)/C=C/c2c[nH]c3cccc(C)c23)cc(OC)c1OC [Compound 15, (E)-3-(4-Methylindol-3-yl)-1-(3,4,5-trimethoxyphenyl)-2-propen-1-one]
IC50: 86 nM

COc1ccc(C(=O)n2cc(/C=C/C(=O)c3cc(OC)c(OC)c(OC)c3)c3ccccc32)cc1 [Compound 51, (E)--3-[1-(4-Methoxybenzoyl)indol-3-yl]-1-(3,4,5-trimethoxyphenyl)-2-propen-1-one]
IC50: 23 nM

COc1cc(C(=O)/C=C/c2cn(C(=O)c3cc(OC)c(OC)c(OC)c3)c3ccccc23)cc(OC)c1OC [Compound 59, (E)-3-[1-(3,4,5-Trimethoxybenzoyl)indol-3-yl]-1-(3,4,5-trimethoxyphenyl)-2-propen-1-one]
IC50: 28 nM

COc1cc(C(=O)/C=C/c2c[nH]c3ccc(F)cc23)cc(OC)c1OC [Compound 29, (E)-3-(5-Fluoroindol-3-yl)-1-(3,4,5-trimethoxyphenyl)-2-propen-1-one]
IC50: 60 nM

COc1cc(C(=O)C(=Cc2c[nH]c3ccccc23)c2ccccc2)cc(OC)c1OC [Compound 64, 3-(Indol-3-yl)-2-phenyl-1-(3,4,5-trimethoxyphenyl)-2-propen-1-one]
IC50: 2.3 nM

COc1cc(C(=O)/C=C/c2c[nH]c3cc(C)ccc23)cc(OC)c1OC [Compound 32, (E)-3-(6-Methylindol-3-yl)-1-(3,4,5-trimethoxyphenyl)-2-propen-1-one]
IC50: 6.3 nM

COc1cc(C(=O)/C=C/c2c[nH]c3c(OC)c(OC)ccc23)cc(OC)c1OC [Compound 40, (E)-3-(6,7-Dimethoxyindol-3-yl)-1-(3,4,5-trimethoxyphenyl)-2-propen-1-one]
IC50: 12 nM

COc1cc(C(=O)/C=C/c2cn(C(=O)c3ccncc3)c3ccccc23)cc(OC)c1OC [Compound 61, (E)-3-(1-Isonicotinoylindol-3-yl)-1-(3,4,5-trimethoxyphenyl)-2-propen-1-one]
IC50: 9.7 nM

COc1cc(C(=O)/C=C/c2cn(C(=O)COCC(=O)O)c3ccccc23)cc(OC)c1OC [Compound 67, (E)-3-(1-Diglycolylindol-3-yl)-1-(3,4,5-trimethoxyphenyl)-2-propen-1-one]
IC50: 11 nM

COc1cc(C(=O)/C=C/c2c(C)[nH]c3ccccc23)cc(OC)c1OC [Compound 12, (E)-3-(2-Methylindol-3-yl)-1-(3,4,5-trimethoxyphenyl)-2-propen-1-one]
IC50: 260 nM

COc1cc(C(=O)/C=C/c2cn(C(=O)c3ccc(N(C)C)cc3)c3ccccc23)cc(OC)c1OC [Compound 57, (E)-3-[1-(4-Dimethylaminobenzoyl)indol-3-yl]-1-(3,4,5-trimethoxyphenyl)-2-propen-1-one]
IC50: 31 nM

COc1ccc(C(=O)n2cc(/C=C/C(=O)c3cc(OC)c(OC)c(OC)c3)c3ccccc32)cc1OC [Compound 58, (E)-3-[1-(3,4-Dimethoxybenzoyl)indol-3-yl]-1-(3,4,5-trimethoxyphenyl)-2-propen-1-one]
IC50: 64 nM

COc1cc(C(=O)/C=C/c2cn(C(=O)c3ccc(C)cc3)c3ccccc23)cc(OC)c1OC [Compound 50, (E)-3-[1-(4-Methylbenzoyl)indol-3-yl]-1-(3,4,5-trimethoxyphenyl)-2-propen-1-one]
IC50: 25 nM

CC/C(=C\c1c[nH]c2ccccc12)C(=O)c1cc(OC)c(OC)c(OC)c1 [Compound 62, (E)-2-Ethyl-3-(indol-3-yl)-1-(3,4,5-trimethoxyphenyl)-2-propen-1-one]
IC50: 4.7 nM
